Measured values as given in US9096560B2, “5-heterocyclylalkyl-3-hydroxy-2-phenylcyclopent-2-enones as herbicides” (Syngenta Limited, priority 2008, dated 2015).

Key:
Format in all cases: in vivo
Lolium perenne (LOLPE) [1] = assay: Example B pre-emergence herbicidal test, LOLPE; conditions: Lolium perenne, 312 h, rate 250 g/ha, evaluated after 13 days, 100=total damage to plant, 0=no damage to plant
In short: (§1)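 Pots sown, sprayed day 1 pre-emergence; spray: aqueous dilution of formulation in acetone/water 50:50 + 0.5% Tween 20. Glasshouse 24/16° C, 14 h light, 65% RH, watering twice daily. Visual damage rating at 13 d, 0–100 scale.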

[2] = test system: Echinochloa crus-galli (ECHCG); assay: Example B post-emergence herbicidal test, ECHCG; conditions: Echinochloa crus-galli, 312 h, rate 250 g/ha, evaluated after 13 days, scale 0-100, read-out: Post-emergence activity ECHCG (100=total damage to plant; 0=no damage to plant)
In short: (§2)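 Foliar application to 8-day-old pot-grown seedlings in a glasshouse (24/16 °C, 14 h photoperiod, 65% humidity). Spray solution was derived from an acetone/water (50:50) formulation with 0.5% Tween 20. Injury was assessed 13 days later on a 0–100 scale.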

Avena fatua (AVEFA) [3] = assay: Example B pre-emergence herbicidal test, AVEFA; conditions: Avena fatua, 312 h, rate 250 g/ha, evaluated after 13 days, 100=total damage to plant, 0=no damage to plant
In short: as §1

[4] = test system: Echinochloa crus-galli (ECHCG); assay: Example A post-emergence herbicidal test, ECHCG; conditions: rate 250 g/ha, evaluated 14 or 15 days after spraying
Experimental: (§3) Seeds of a variety of test species were sown in standard soil in pots. After cultivation for one day (pre-emergence) or after 10 days cultivation (post-emergence) under controlled conditions in a glasshouse, the plants were sprayed with an aqueous spray solution derived from the formulation of the technical active ingredient in 0.6 ml acetone and 45 ml formulation solution containing 10.6% Emulsogen EL (Registry number 61791-12-6), 42.2% N-methylpyrrolidone, 42.2% dipropylene glycol monomethyl ether (Registry number 34590-94-8) and 0.2% X-77 (Registry number 11097-66-8). The test plants were then grown in a greenhouse under optimum conditions until, 14 or 15 days later for post-emergence and 19 or 20 days for pre-emergence, the test was evaluated (100=total damage to plant; 0=no damage to plant). Alopecurus myosuroides (ALOMY), Avena fatua (AVEFA), Lolium perenne (LOLPE), Setaria faberi (SETFA), Digitaria sanguinalis (DIGSA), Echinochloa crus-galli (ECHCG) Post-Emergence Activity

[5] = test system: Winter Wheat variety 'Hereward' seed treated with cloquintocet mexyl; assay: Example C crop damage test on Winter Wheat seed treated with safener cloquintocet mexyl, post-emergence; conditions: rate 250 g/ha, seed treated with cloquintocet mexyl 0.5 grams per kilogram of dry seed, evaluated after 13 days
In short: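 Hereward winter wheat seed treated with cloquintocet mexyl at 0.5 g/kg seed, sown 8 days before post-emergence spray. The spray was made from a formulation in acetone/water 50:50 with 0.5% Tween 20. Grown in a glasshouse at 24/16 °C with 14 h light and 65% humidity; damage scored 0–100 (100 = total) after 13 days.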

[6] = test system: Alopecurus myosuroides (ALOMY); assay: Example B pre-emergence herbicidal test, ALOMY; conditions: Alopecurus myosuroides, 312 h, rate 250 g/ha, evaluated after 13 days, 100=total damage to plant, 0=no damage to plant
In short: as §1

[7] = test system: Alopecurus myosuroides (ALOMY); assay: Example A post-emergence herbicidal test, ALOMY; conditions: rate 250 g/ha, evaluated 14 or 15 days after spraying
Experimental: as §3

Avena fatua (AVEFA) [8] = assay: Example A post-emergence herbicidal test, AVEFA; conditions: rate 250 g/ha, evaluated 14 or 15 days after spraying
Experimental: as §3

[9] = test system: Digitaria sanguinalis (DIGSA); assay: Example A post-emergence herbicidal test, DIGSA; conditions: rate 250 g/ha, evaluated 14 or 15 days after spraying
Experimental: as §3

[10] = test system: Winter Wheat variety 'Hereward'; assay: Example C crop damage test on Winter Wheat, post-emergence, no safener; conditions: Triticum aestivum, 312 h, rate 250 g/ha, evaluated after 13 days, read-out: Winter Wheat (Hereward) damage (100=total damage to plant; 0=no damage to plant)
In short: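 Wheat plants grown 8 days in glasshouse (24/16° C. day/night, 14 h light, 65% humidity) were sprayed post-emergence with compound in acetone/water (50:50) containing 0.5% Tween 20, no safener. Damage scored 13 days later, 0 = none to 100 = total.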

Lolium perenne (LOLPE) [11] = assay: Example A post-emergence herbicidal test, LOLPE; conditions: rate 250 g/ha, evaluated 14 or 15 days after spraying
Experimental: as §3

Lolium perenne (LOLPE) [12] = assay: Example B post-emergence herbicidal test, LOLPE; conditions: Lolium perenne, 312 h, rate 250 g/ha, evaluated after 13 days, scale 0-100, read-out: Post-emergence activity LOLPE (100=total damage to plant; 0=no damage to plant)
In short: as §2

[13] = test system: Alopecurus myosuroides (ALOMY); assay: Example B post-emergence herbicidal test, ALOMY; conditions: Alopecurus myosuroides, 312 h, rate 250 g/ha, evaluated after 13 days, scale 0-100, read-out: Post-emergence activity ALOMY (100=total damage to plant; 0=no damage to plant)
In short: as §2

[14] = test system: Echinochloa crus-galli (ECHCG); assay: Example B pre-emergence herbicidal test, ECHCG; conditions: Echinochloa crus-galli, 312 h, rate 250 g/ha, evaluated after 13 days, 100=total damage to plant, 0=no damage to plant
In short: as §1

Avena fatua (AVEFA) [15] = assay: Example B post-emergence herbicidal test, AVEFA; conditions: Avena fatua, 312 h, rate 250 g/ha, evaluated after 13 days, scale 0-100, read-out: Post-emergence activity AVEFA (100=total damage to plant; 0=no damage to plant)
In short: as §2

Setaria faberi (SETFA) = assay: Example A post-emergence herbicidal test, SETFA; conditions: rate 250 g/ha, evaluated 14 or 15 days after spraying
Experimental: as §3

SMILES | pest or weed control at 250 g/ha (Lolium perenne (LOLPE) [1]) | pest or weed control at 250 g/ha [2] | pest or weed control at 250 g/ha (Avena fatua (AVEFA) [3]) | Post-Emergence Activity ECHCG (100=total damage to plant; 0=no damage to plant) [4] | Winter Wheat (Hereward) + cloquintocet mexyl damage (100=total damage to plant; 0=no damage to plant) [5] | pest or weed control at 250 g/ha [6] | Post-Emergence Activity ALOMY (100=total damage to plant; 0=no damage to plant) [7] | Post-Emergence Activity AVEFA (100=total damage to plant; 0=no damage to plant) (Avena fatua (AVEFA) [8]) | Post-Emergence Activity DIGSA (100=total damage to plant; 0=no damage to plant) [9] | crop damage to winter wheat at 250 g/ha [10] | Post-Emergence Activity LOLPE (100=total damage to plant; 0=no damage to plant) (Lolium perenne (LOLPE) [11]) | pest or weed control at 250 g/ha (Lolium perenne (LOLPE) [12]) | pest or weed control at 250 g/ha [13] | pest or weed control at 250 g/ha [14] | pest or weed control at 250 g/ha (Avena fatua (AVEFA) [15]) | Post-Emergence Activity SETFA (100=total damage to plant; 0=no damage to plant) (Setaria faberi (SETFA))
Cc1cc(C)c(C2C(=O)C/C(=C\C3CCOCC3)C2=O)c(C)c1 (stereo not drawn) [Compound T8] | 100% | 100% | 100% | 100 | 80 | 100% | 100 | 90 | 80 | 90% | 100 | 100% | 100% | 100% | 100% | 100
Cc1cc(C)c(C2=C(OC(=O)C(C)(C)C)CC(CC3CCOCC3)C2=O)c(C)c1 (stereo not drawn) [Compound P5] | 100% | 100% | 80% | 100 | 30 | 100% | 100 | 100 | 70 | 60% | 100 | 100% | 100% | 100% | 90% | 80
Cc1cc(C)c(C2C(=O)CC(CC3CCOC3)C2=O)c(C)c1 (stereo not drawn) [Compound T5] | 100% | 100% | 80% | 80 | 20 | 100% | 100 | 80 | 50 | 80% | 100 | 100% | 100% | 100% | 90% | 30
Cc1cc(C)c(C2C(=O)CC(CC3CCOCC3)C2=O)c(C)c1 (stereo not drawn) [Compound T4] | 100% | 100% | 90% | 100 | 40 | 100% | 100 | 90 | 90 | 70% | 100 | 100% | 100% | 100% | 100% | 90
Cc1cc(C)c(C2C(=O)C/C(=C\C3CCOC3)C2=O)c(C)c1 (stereo not drawn) [Compound T17] | 100% | 100% | 100% |  | 50 | 100% |  |  |  | 70% |  | 100% | 90% | 100% | 100% | 
Cc1cc(-c2ccccc2)cc(C)c1C1C(=O)C/C(=C\C2CCOCC2)C1=O (stereo not drawn) [Compound T66] | 80% | 100% | 80% |  | 20 | 90% |  |  |  | 50% |  | 60% | 90% | 100% | 90% | 
